# From US9238670B2, “Aminoglycoside antibiotics with reduced ototoxicity” (priority 2013, dated 2016)
# Where two headings read alike, the source gives them in different places.
# What was measured:
# [1] = tested on: hair cells of cochlea organ of corti cultures; assay: in vitro
# Procedure: For example, an ototoxicity test that can be used includes the steps of (1) treating organ of corti cultures with a compound of the invention and a parent aminoglycoside compound for a certain period of time (e.g., 1 hour), respectively; (2) washing and then culturing the treated tissue for some period of time (e.g., 2 days); (3) fixing and staining the tissue so that hair cell counts can be obtained; and (4) comparing the hair cell counts between the tissue treated by the compound of the invention and the tissue treated by the parent aminoglycoside compound.
# Ototoxicity was also assayed using cochlea organ of corti cultures. The cultures were made at 4 days post birth (P4), cultured for 1 day and then treated for 1 hour with test compound. The tissue was then washed and cultured for an additional two days at which time the tissue is fixed and stained so that hair cell counts could be obtained. This method is similar to that used previously in characterizing aminoglycoside ototoxicity (Alharazneh et al., 2011). Fixed regions at the apex, middle, and base of the cochlea were imaged and cell counts obtained. […] Data were quantified across cochlear regions for this same compound. Quantification was by counting the number of outer hair cells present over a given distance. […] A dose response curve was created for the parent compound as well as the tested novel aminoglycoside. […] Other sisomicin derivatives were also tested for ototoxicity.
# E. coli = E. coli assay of minimal inhibitory (MIC) and minimal bactericidal (MBC) concentrations; assay type: cell-based; conditions: FIGS. 1A and 1B
# Procedure: FIGS. 1A and 1B are bar graphs showing antimicrobial activities of a variety of sisomicin derivatives (MS=methyl sulfonyl, PS=phenyl sulfonyl, BZ=benzoyl, SiRho=rhodamine; and 1N and 3″ indicate substituents' position on sisomicin). The negative values reflect an arbitrary value indicating no detectable level of activity.
# Both antimicrobial activity and ototoxicity in several of the synthesized compounds were assessed. To test antimicrobial activity, an E. coli assay was used to test both minimal inhibitory concentrations (MIC) as well as minimal bactericidal concentrations (MBC). A cross section of results was presented in FIG. 1, for control and a variety of tested compounds. […] Antimicrobial activity remained stable for each compound over time.
# mouse [2] = conditions: in vivo
# mouse [3] = assay: LD50 after intraperitoneal injection in mouse model; assay type: in vivo; conditions: FIG. 5
structure (smiles),measurement,setting,value
"CN([C@@H]1[C@@H](O)[C@@H](O[C@@H]2[C@@H](O)[C@H](O[C@H]3OC(CN)=CC[C@H]3N)[C@@H](N)C[C@H]2N)OC[C@]1(C)O)S(C)(=O)=O [3″N-methyl sulfonyl sisomicin, 3″-methylsulfonyl sisomicin]",ototoxicity compared in words,[1]; 1 h,about equally non-ototoxic as 1N-methyl sulfonyl sisomicin
"CN([C@@H]1[C@@H](O)[C@@H](O[C@@H]2[C@@H](O)[C@H](O[C@H]3OC(CN)=CC[C@H]3N)[C@@H](N)C[C@H]2N)OC[C@]1(C)O)S(=O)(=O)c1ccccc1 [3″N-phenyl sulfonyl sisomicin, 3″-benzenesulfonyl-sisomicin]",ototoxicity compared in words,[1],about equally ototoxic as sisomicin
"CN([C@@H]1[C@@H](O)[C@@H](O[C@@H]2[C@@H](O)[C@H](O[C@H]3OC(CN)=CC[C@H]3N)[C@@H](N)C[C@H]2NS(=O)(=O)c2ccccc2)OC[C@]1(C)O)S(=O)(=O)c1ccccc1 [1N,3″N-phenyl sulfonyl sisomicin, 1,3″-dibenzenesulfonyl-sisomicin]",ototoxicity compared in words,[1],about equally ototoxic as sisomicin
"CN[C@@H]1[C@@H](O)[C@@H](O[C@@H]2[C@@H](O)[C@H](O[C@H]3OC(CN)=CC[C@H]3N)[C@@H](N)C[C@H]2NS(=O)(=O)c2ccccc2)OC[C@]1(C)O [1N phenyl sulfonyl sisomicin, 1-Benzenesulfonyl-sisomicin]",less toxic than sisomicin (ototoxicity),[1]; 1 h,about 80%
"CN[C@@H]1[C@@H](O)[C@@H](O[C@@H]2[C@@H](O)[C@H](O[C@H]3OC(CN)=CC[C@H]3N)[C@@H](N)C[C@H]2NC(=O)c2ccccc2)OC[C@]1(C)O [1N benzoyl sisomicin, 1-benzoyl sisomicin]",less toxic than sisomicin (ototoxicity),[1]; 1 h,30%
"CN[C@@H]1[C@@H](O)[C@@H](O[C@@H]2[C@@H](O)[C@H](O[C@H]3OC(CN)=CC[C@H]3N)[C@@H](N)C[C@H]2NS(C)(=O)=O)OC[C@]1(C)O [1N-methyl sulfonyl sisomicin, 1-N-methylsulfonyl sisomicin]","antimicrobial activity (MIC, MBC)",E. coli,retained antimicrobial activity
same,Kd at 1 h,[1],1500 µM
same,fold less toxic than the parent compound,[1],more than ten-fold shift in sensitivity for toxicity
same,hair cell loss at any of the cochlea regions tested,[1],did not cause any hair cell loss
same,hair cells in stained tissue (FIG. 2),[1],no hair cell loss
same,fold less toxic than the parent compound,[1]; 1 h,more than 10 ×
same,hair cell loss in histological preparations of the cochlea,mouse [2],no loss of hair cells
same,LD50 relative to LD50 of the parent sisomicin (fold higher),mouse [3],3 ×
"CN([C@@H]1[C@@H](O)[C@@H](O[C@@H]2[C@@H](O)[C@H](O[C@H]3OC(CN)=CC[C@H]3N)[C@@H](N)C[C@H]2NS(C)(=O)=O)OC[C@]1(C)O)S(C)(=O)=O [1N,3″N-methyl sulfonyl sisomicin, 1,3″-N-bis-methylsulfonyl sisomicin]",ototoxicity compared in words,[1]; 1 h,about equally non-ototoxic as 1N-methyl sulfonyl sisomicin
"CN(C(=O)c1ccccc1)[C@@H]1[C@@H](O)[C@@H](O[C@@H]2[C@@H](O)[C@H](O[C@H]3OC(CN)=CC[C@H]3N)[C@@H](N)C[C@H]2N)OC[C@]1(C)O [3″N-benzoyl sisomicin, 3″-Benzoyl sisomicin]",less toxic than sisomicin (ototoxicity),[1]; 1 h,about 60%
"CN[C@@H]1[C@@H](O)[C@@H](O[C@@H]2[C@@H](O)[C@H](O[C@H]3OC(CN)=CC[C@H]3N)[C@@H](N)C[C@H]2N)OC[C@]1(C)O [sisomicin, reference compound]",Kd at 1 h,[1],120 µM
same,hair cells in stained tissue (FIG. 2),[1],no hair cells remained
same,"outer hair cells killed, apex of cochlea",[1]; 1 h,about 60%
same,"outer hair cells killed, base and middle of cochlea",[1]; 1 h,more than 90%
same,hair cell loss in histological preparations of the cochlea,mouse [2],significant hair cell loss
